Test results from patent publication US20050142080A1, “Cosmetic or dermatological light protection formulation with a benzoxazole derivative” (Beiersdorf AG, priority 2001, published 2005).

Row | Compound | σ [mN/m] at 25° C. (surface tension) [mN/m]
1 | CCCCCCC(CO)CCCC (centres unmarked) [Butyl Octanol] | 26.9
2 | CCCCCCCCCCC(CO)CCCCCCCC (centres unmarked) [Octyldodecanol] | 28.9
